“Also recorded” adds a separate entry of the source.
Key:
Balb/cJ mice = assay: CPT-11-induced delayed diarrhea and intestinal damage in mice
E. coli β-glucuronidase = E. coli β-glucuronidase (Escherichia coli, UniProt P05804); assay: E. coli β-glucuronidase in vitro inhibition assay; type: biochemical; details: errors SD, N = 3
[1] = target: β-glucuronidase activity in cultured E. coli cells (Escherichia coli, UniProt P05804); assay: β-glucuronidase activity in living E. coli cells; type: cell-based
β-glucuronidase activity in cultured E. coli cells, sequence (P05804 whole entry): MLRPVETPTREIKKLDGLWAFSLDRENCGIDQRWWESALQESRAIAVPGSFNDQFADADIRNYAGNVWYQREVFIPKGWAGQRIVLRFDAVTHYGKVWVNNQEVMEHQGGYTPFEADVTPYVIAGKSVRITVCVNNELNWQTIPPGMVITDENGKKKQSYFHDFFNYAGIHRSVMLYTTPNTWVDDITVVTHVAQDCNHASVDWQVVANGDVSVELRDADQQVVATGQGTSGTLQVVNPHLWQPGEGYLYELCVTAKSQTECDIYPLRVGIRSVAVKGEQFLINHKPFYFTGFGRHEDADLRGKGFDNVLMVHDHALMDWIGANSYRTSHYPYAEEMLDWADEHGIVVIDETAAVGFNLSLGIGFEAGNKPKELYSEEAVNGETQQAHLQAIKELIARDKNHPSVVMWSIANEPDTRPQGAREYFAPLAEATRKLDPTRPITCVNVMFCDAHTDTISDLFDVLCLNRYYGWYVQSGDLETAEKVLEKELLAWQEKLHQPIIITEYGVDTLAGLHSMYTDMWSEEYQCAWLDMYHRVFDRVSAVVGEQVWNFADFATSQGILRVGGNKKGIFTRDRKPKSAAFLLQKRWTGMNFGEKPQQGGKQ

E. coli β-glucuronidase, sequence (P05804 whole entry): as above

In the case of `CCc1c2c(nc3ccc(OC(=O)N4CCC(N5CCCCC5)CC4)cc13)-c1cc3c(c(=O)n1C2)COC(=O)[C@]3(O)CC` [CPT-11, irinotecan, reference compound], the “diarrhea and bloody diarrhea, CPT-11 only” value (Balb/cJ mice; group 3: CPT-11 50 mg per kg i.p. once daily, no Inhibitor 1, days 8 to 10) is reported as “all the animals; also recorded: produced bloody diarrhea starting after 8 days and peaking at 10 days”, the “colonic tissue histology, CPT-11 only” value (Balb/cJ mice; group 3: CPT-11 only) is reported as “destroyed these tissues; also recorded: highly disrupted tissues” and the “euthanasia, CPT-11 only” value (Balb/cJ mice; group 3: CPT-11 only, by day 11) is reported as “all the group 3 animals had to be euthanized”.
With glucaro-δ-lactam [reference compound] the IC50 (E. coli β-glucuronidase) was 26.4 ± 0.483 µM, the Ki (E. coli β-glucuronidase) was 7.75 ± 0.475 µM and the EC50 ([1]; E. coli cell-based, errors SD, N = 3) was “N.E”. For the same molecule, the “effect on β-glucuronidase activity in cultured E. coli cells” value ([1]; cultured E. coli, listed as GDL) was “did not disrupt β-glucuronidase activity; also recorded: no effect”.

From PMC3110694 (Science (New York, N.Y.), 2010)
